According to patent publication US20250353848A1, “HETEROCYCLIC PAD4 INHIBITORS” (Celgene Corporation, priority 2022, published 2025):

Legend:
hPAD4 enzyme [1] = target: T1, hPAD4 enzyme (Homo sapiens, UniProt Q9UM07); assay: RFMS Assay 1 (rapid-fire mass spectrum PAD4 inhibition assay, BAEE substrate); assay type: biochemical; conditions: 5 nM hPAD4 enzyme, 250 μM BAEE, 30 mins compound and enzyme preincubation at 37° C., 90 min enzyme/substrate reaction
Method in brief: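 Human PAD4 (5 nM) preincubated 30 min at 37 °C with compound (top 50 μM, 0.5% DMSO), then 250 μM BAEE for 90 min at 37 °C in pH 7.5 HEPES with 50 μM calcium, 5 μM TPEN, 1 mM DTT. Product derivatized with phenyl glyoxal; citrulline product quantified by RapidFire MS/MS MRM, normalized to internal standard.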

hPAD4 enzyme [2] = target: T1, hPAD4 enzyme; assay: RFMS Assay 2 (rapid-fire mass spectrum PAD4 inhibition assay, peptide substrate); assay type: biochemical; conditions: 35 nM recombinant human PAD4, substrate TSTGGRQGSHH, room temperature for 30 minutes; read-out: human PAD4 (hPAD4) IC50, RFMS Assay 2
Description: Stock compounds were dissolved and stored in 100% DMSO. Compound solutions were prepared via serial dilution at 3-fold intervals in DMSO with top compound concentration at […] in each assay. 0.25 μl of compound solution was transferred from the compound plate to the assay plate by using an acoustic dispenser. Final assay conditions: • Total reaction volume: 25 μl • Assay buffer: […] pH 7.4, 200 mM NaCl, 2 mM CaCl2, 5 mM DTT • 35 nM recombinant human PAD4 • 500 µM TSTGGRQGSHH (SEQ ID NO: 1) • 1.2% DMSO • Stop solution: 10% formic acid
Reaction mixtures were incubated at room temperature for 30 minutes. 10 μl each of the reaction mixtures was then mixed with 40 μl of 10% formic acid in a microtiter plate. The plate was frozen at −80° C. before shipping out on dry ice for RapidFire mass spectroscopy analysis.
Thawed samples were loaded onto the Rapid Fire 300 system (Agilent) wherein they were first sipped for 250 ms and then loaded onto a Agilent “C” (C18) cartridge using a mobile phase of water containing 0.09% formic acid/0.01% trifluoroacetic acid for 3000 ms desalting flowing at a rate of 1.5 ml/min. Once the samples were loaded and washed, a mobile phase of acetonitrile containing 0.09% formic acid/0.01% trifluoroacetic acid was used to elute the samples directly onto a Sciex API4000 triple quadrupole mass spectrometer for 3000 ms at a flow rate of 1.25 ml/min.
MRM transitions for substrate and product were monitored in positive ESI mode at m/z=562.3/969.7 and m/z=562.8/541.3 respectively. The dwell time for each transition was set at 100 ms, and the ESI voltage was used at 5500 with a source temperature of 650° C. Extracted ion peaks for each transition were integrated using the Rapid Fire Integrator software.

T1 sequence (Q9UM07 whole entry): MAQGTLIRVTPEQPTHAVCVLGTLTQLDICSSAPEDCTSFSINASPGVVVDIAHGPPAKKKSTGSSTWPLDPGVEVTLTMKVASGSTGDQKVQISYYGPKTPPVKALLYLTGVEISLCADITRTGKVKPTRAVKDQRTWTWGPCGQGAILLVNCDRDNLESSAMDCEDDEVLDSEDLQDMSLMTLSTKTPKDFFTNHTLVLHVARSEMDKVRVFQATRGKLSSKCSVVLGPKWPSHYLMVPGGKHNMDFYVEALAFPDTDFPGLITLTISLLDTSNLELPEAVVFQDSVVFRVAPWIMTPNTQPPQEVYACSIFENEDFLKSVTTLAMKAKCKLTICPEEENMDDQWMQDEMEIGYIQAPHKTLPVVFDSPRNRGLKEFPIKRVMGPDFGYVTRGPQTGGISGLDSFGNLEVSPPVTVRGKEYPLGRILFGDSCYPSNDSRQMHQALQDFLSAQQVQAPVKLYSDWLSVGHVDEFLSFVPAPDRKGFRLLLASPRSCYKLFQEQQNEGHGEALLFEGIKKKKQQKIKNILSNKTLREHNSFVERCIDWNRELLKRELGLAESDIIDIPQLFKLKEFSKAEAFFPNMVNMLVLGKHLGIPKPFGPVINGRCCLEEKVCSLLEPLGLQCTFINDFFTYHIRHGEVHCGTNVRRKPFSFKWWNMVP

`COc1cccc2cc(-c3nc4cc5c(nc4n3C)CCN(C[C@H](N)CF)C5=O)n(Cc3nc(C)cs3)c12` [Example 14, (S)-7-(2-amino-3-fluoropropyl)-2-(7-methoxy-1-((4-methylthiazol-2-yl)methyl)-1H-indol-2-yl)-3-methyl-3,5,6,7-tetrahydro-8H-imidazo[4,5-b][1,6]naphthyridin-8-one] was tested, and the IC50 (hPAD4 enzyme [1]) was 11 to 100 nM and the IC50 (hPAD4 enzyme [2]) was 501 to 1000 nM.
With `Cn1c(-c2cc3cccc(OC[C@@H]4CNC(=O)C4)c3n2CC2CC2)nc2cc3c(nc21)CCN(C[C@H](N)CF)C3=O` [Example 59, 7-((S)-2-amino-3-fluoropropyl)-2-(1-(cyclopropylmethyl)-7-(((S)-5-oxopyrrolidin-3-yl)methoxy)-1H-indol-2-yl)-3-methyl-3,5,6,7-tetrahydro-8H-imidazo[4,5-b][1,6]naphthyridin-8-one] the IC50 (hPAD4 enzyme [1]) was 11 to 100 nM and the IC50 (hPAD4 enzyme [2]) was 11 to 100 nM.
With `Cn1c(-c2cc3cccc(OC(F)Cn4cncc4F)c3n2CC2CC2)nc2cc3c(nc21)CCN(C[C@H](N)CF)C3=O` (single isomer, unassigned) [Example 75a] the IC50 (hPAD4 enzyme [1]) was at most 10 nM and the IC50 (hPAD4 enzyme [2]) was 11 to 100 nM.
`Cn1c(-c2cc3ccnc(OCCn4ccnc4)c3n2CC2CC2)nc2cc3c(nc21)CCN(C[C@H](N)CF)C3=O` [Example 84, (S)-2-(7-(2-(1H-imidazol-1-yl)ethoxy)-1-(cyclopropylmethyl)-1H-pyrrolo[2,3-c]pyridin-2-yl)-7-(2-amino-3-fluoropropyl)-3-methyl-3,5,6,7-tetrahydro-8H-imidazo[4,5-b][1,6]naphthyridin-8-one] was tested, and the IC50 (hPAD4 enzyme [1]) was at most 10 nM and the IC50 (hPAD4 enzyme [2]) was 11 to 100 nM.
`COc1c(F)ccc2cc(-c3nc4cc5c(nc4n3C)CCN(C[C@H](N)CF)C5=O)n(Cc3ccno3)c12` [Example 23, (S)-7-(2-amino-3-fluoropropyl)-2-(6-fluoro-1-(isoxazol-5-ylmethyl)-7-methoxy-1H-indol-2-yl)-3-methyl-3,5,6,7-tetrahydro-8H-imidazo[4,5-b][1,6]naphthyridin-8-one] gave an IC50 (hPAD4 enzyme [1]) of 11 to 100 nM and an IC50 (hPAD4 enzyme [2]) of 501 to 1000 nM.
With `Cn1c(-c2cc3cccc(OCCc4cnco4)c3n2CC2CC2)nc2cc3c(nc21)CCN(C[C@H](N)CF)C3=O` [Example 41, (S)-7-(2-amino-3-fluoropropyl)-2-(1-(cyclopropylmethyl)-7-(2-(oxazol-5-yl)ethoxy)-1H-indol-2-yl)-3-methyl-3,5,6,7-tetrahydro-8H-imidazo[4,5-b][1,6]naphthyridin-8-one] the IC50 (hPAD4 enzyme [1]) was at most 10 nM and the IC50 (hPAD4 enzyme [2]) was 11 to 100 nM.
Work on `C[C@H](Cn1ccnc1)Oc1cccc2cc(-c3nc4cc5c(nc4n3C)CCN(C[C@H](N)CF)C5=O)n(CC3CC3)c12` [Example 62, 2-(7-(((R)-1-(1H-imidazol-1-yl)propan-2-yl)oxy)-1-(cyclopropylmethyl)-1H-indol-2-yl)-7-((S)-2-amino-3-fluoropropyl)-3-methyl-3,5,6,7-tetrahydro-8H-imidazo[4,5-b][1,6]naphthyridin-8-one] yielded an IC50 (hPAD4 enzyme [1]) of 11 to 100 nM and an IC50 (hPAD4 enzyme [2]) of 101 to 500 nM.
In the case of `Cc1ncoc1CCOc1cccc2cc(-c3nc4cc5c(nc4n3C)CCN(C[C@H](N)CF)C5=O)n(CC3CC3)c12` [Example 48, (S)-7-(2-amino-3-fluoropropyl)-2-(1-(cyclopropylmethyl)-7-(2-(4-methyloxazol-5-yl)ethoxy)-1H-indol-2-yl)-3-methyl-3,5,6,7-tetrahydro-8H-imidazo[4,5-b][1,6]naphthyridin-8-one], the IC50 (hPAD4 enzyme [1]) is reported as 11 to 100 nM and the IC50 (hPAD4 enzyme [2]) is reported as 101 to 500 nM.
`Cn1c(-c2cc3cccc(OCCc4cnn[nH]4)c3n2CC2CC2)nc2cc3c(nc21)CCN(C[C@H](N)CF)C3=O` [Example 47, (S)-2-(7-(2-(1H-1,2,3-triazol-5-yl)ethoxy)-1-(cyclopropylmethyl)-1H-indol-2-yl)-7-(2-amino-3-fluoropropyl)-3-methyl-3,5,6,7-tetrahydro-8H-imidazo[4,5-b][1,6]naphthyridin-8-one] was tested, and the IC50 (hPAD4 enzyme [1]) was at most 10 nM and the IC50 (hPAD4 enzyme [2]) was 11 to 100 nM.
With `Cn1c(-c2cc3cccc(OCC(C)(C)n4ccnc4)c3n2CC2CC2)nc2cc3c(nc21)CCN(C[C@H](N)CF)C3=O` [Example 96, (S)-2-(7-(2-(1H-imidazol-1-yl)-2-methylpropoxy)-1-(cyclopropylmethyl)-1H-indol-2-yl)-7-(2-amino-3-fluoropropyl)-3-methyl-3,5,6,7-tetrahydro-8H-imidazo[4,5-b][1,6]naphthyridin-8-one] the IC50 (hPAD4 enzyme [1]) was at most 10 nM and the IC50 (hPAD4 enzyme [2]) was 101 to 500 nM.
`Cn1c(-c2cc3ccc(C(C)(C)O)nc3n2CC2CC2)nc2cc3c(nc21)CCN(C[C@H](N)CF)C3=O` [Example 33, (S)-7-(2-amino-3-fluoropropyl)-2-(1-(cyclopropylmethyl)-6-(2-hydroxypropan-2-yl)-1H-pyrrolo[2,3-b]pyridin-2-yl)-3-methyl-3,5,6,7-tetrahydro-8H-imidazo[4,5-b][1,6]naphthyridin-8-one] was tested, and the IC50 (hPAD4 enzyme [1]) was 11 to 100 nM and the IC50 (hPAD4 enzyme [2]) was 501 to 1000 nM.
`COc1cccc2cc(-c3nc4cc5c(nc4n3C)CCN(C[C@H](N)CF)C5=O)n(CC3(F)CC3)c12` [Example 15, (S)-7-(2-amino-3-fluoropropyl)-2-(1-((1-fluorocyclopropyl)methyl)-7-methoxy-1H-indol-2-yl)-3-methyl-3,5,6,7-tetrahydro-8H-imidazo[4,5-b][1,6]naphthyridin-8-one] was tested, and the IC50 (hPAD4 enzyme [1]) was 11 to 100 nM and the IC50 (hPAD4 enzyme [2]) was 101 to 500 nM.
`Cn1c(-c2cc3cccc(OCCn4cnc(F)c4)c3n2CC2CC2)nc2cc3c(nc21)CCN(C[C@H](N)CF)C3=O` [Example 70, (S)-7-(2-amino-3-fluoropropyl)-2-(1-(cyclopropylmethyl)-7-(2-(4-fluoro-1H-imidazol-1-yl)ethoxy)-1H-indol-2-yl)-3-methyl-3,5,6,7-tetrahydro-8H-imidazo[4,5-b][1,6]naphthyridin-8-one] was tested, and the IC50 (hPAD4 enzyme [1]) was at most 10 nM and the IC50 (hPAD4 enzyme [2]) was 11 to 100 nM.
`COc1cccc2cc(-c3nc4cc5c(nc4n3C)CCN(C[C@H]3COCCN3)C5=O)n(CC3(F)CC3)c12` [Example 26, (S)-2-(1-((1-fluorocyclopropyl)methyl)-7-methoxy-1H-indol-2-yl)-3-methyl-7-(morpholin-3-ylmethyl)-3,5,6,7-tetrahydro-8H-imidazo[4,5-b][1,6]naphthyridin-8-one] gave an IC50 (hPAD4 enzyme [1]) of 101 to 500 nM and an IC50 (hPAD4 enzyme [2]) of 101 to 500 nM.
With `Cn1c(-c2cc3cccc(OCCn4cncc4F)c3n2CC2CC2)nc2cc3c(nc21)CCN(C[C@H](N)CF)C3=O` [Example 42, (S)-7-(2-amino-3-fluoropropyl)-2-(1-(cyclopropylmethyl)-7-(2-(5-fluoro-1H-imidazol-1-yl)ethoxy)-1H-indol-2-yl)-3-methyl-3,5,6,7-tetrahydro-8H-imidazo[4,5-b][1,6]naphthyridin-8-one] the IC50 (hPAD4 enzyme [1]) was 11 to 100 nM and the IC50 (hPAD4 enzyme [2]) was 101 to 500 nM.
With `COCC(=O)N1CCC(c2cccc3cc(-c4nc5cc6c(nc5n4C)CCN(C[C@H](N)CF)C6=O)n(CC4CC4)c23)CC1` [Example 30, (S)-7-(2-amino-3-fluoropropyl)-2-(1-(cyclopropylmethyl)-7-(1-(2-methoxyacetyl)piperidin-4-yl)-1H-indol-2-yl)-3-methyl-3,5,6,7-tetrahydro-8H-imidazo[4,5-b][1,6]naphthyridin-8-one] the IC50 (hPAD4 enzyme [1]) was 11 to 100 nM and the IC50 (hPAD4 enzyme [2]) was at most 10 nM.
For `Cc1cncn1CCOc1cccc2cc(-c3nc4cc5c(nc4n3C)CCN(C[C@H](N)CF)C5=O)n(CC3CC3)c12` [Example 71, (S)-7-(2-amino-3-fluoropropyl)-2-(1-(cyclopropylmethyl)-7-(2-(5-methyl-1H-imidazol-1-yl)ethoxy)-1H-indol-2-yl)-3-methyl-3,5,6,7-tetrahydro-8H-imidazo[4,5-b][1,6]naphthyridin-8-one], the IC50 (hPAD4 enzyme [1]) was 11 to 100 nM and the IC50 (hPAD4 enzyme [2]) was 101 to 500 nM.
`Cn1c(-c2cc3cccc(OC[C@H]4CCC(=O)NC4)c3n2CC2CC2)nc2cc3c(nc21)CCN(C[C@H](N)CF)C3=O` [Example 36, 7-((S)-2-amino-3-fluoropropyl)-2-(1-(cyclopropylmethyl)-7-(((S)-6-oxopiperidin-3-yl)methoxy)-1H-indol-2-yl)-3-methyl-3,5,6,7-tetrahydro-8H-imidazo[4,5-b][1,6]naphthyridin-8-one] showed an IC50 (hPAD4 enzyme [2]) of over 1000 nM.
In the case of `Cn1c(-c2cc3cccc(OC[C@@H]4CCC(=O)NC4)c3n2CC2CC2)nc2cc3c(nc21)CCN(C[C@H](N)CF)C3=O` [Example 37, 7-((S)-2-amino-3-fluoropropyl)-2-(1-(cyclopropylmethyl)-7-(((R)-6-oxopiperidin-3-yl)methoxy)-1H-indol-2-yl)-3-methyl-3,5,6,7-tetrahydro-8H-imidazo[4,5-b][1,6]naphthyridin-8-one], the IC50 (hPAD4 enzyme [2]) is reported as 501 to 1000 nM.
